The values below come from ChEMBL document CHEMBL1201862, “PubChem BioAssay data set” (2004).

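Growth conditions: 96-well plates. Treatment: test compound, 48 hours, 5 concentrations. Analysis: linear interpolation between bracketing concentrations; unreached endpoints set to highest concentration. Abbreviation: GI50, concentration required for 50% inhibition of growth.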 Calls of active or inactive are those of the source. Cut-off read from the data, not from the text of the source: active = GI50 up to about 1.1 µM and inactive = higher.

Test systems include SF-295; U-251; A549; HT-29; SNB-75; NCI-H23; OVCAR-8; SNB-78; UO-31; SF-539; SK-MEL-5; KM12; IGROV-1; SW-620; UACC-257; COLO 205; SK-MEL-28; NCI-H460; K562; SR.
Experiment in all cases: inhibition of tumour cell growth, NCI panel, 48 h

For `Cc1c2c(cc3c1[nH]c1ccccc13)C=NCC2`, the GI50 in the assay with SF-295 is 11.2 µM (inactive); with U-251, 13.4 µM (inactive); in the assay with A549, 15.2 µM (inactive); in the assay on HT-29, 14.2 µM (inactive); in the assay on SNB-75 it was 10.6 µM (inactive); in the assay with NCI-H23, 19.7 µM (inactive). Besides, the GI50 in the assay with OVCAR-8 is 10.2 µM (inactive); in the assay on SNB-78 it was 19.7 µM (inactive); in the assay on UO-31, 24 µM (inactive); in the assay with SF-539, 6.37 µM (inactive); in the assay on SK-MEL-5, 6.41 µM (inactive); in the assay on KM12, 8.65 µM (inactive). Further, the GI50 with IGROV-1 was 16.2 µM (inactive); in the assay on SW-620, 8.43 µM (inactive); with UACC-257, 7.83 µM (inactive); with COLO 205 it was 7.13 µM (inactive); with SK-MEL-28, 7.36 µM (inactive); with NCI-H460, 8.53 µM (inactive). For the same compound, in the assay on K562, the GI50 was 6.17 µM (inactive).
In the case of `N/C(=C\c1ccc(/C=C(\NC(=O)c2ccccc2)c2nc3c([nH]2)C(=O)c2ccccc2C3=O)cc1)c1nc2c([nH]1)C(=O)c1ccccc1C2=O`, the GI50 in the assay with SF-295 is 16.5 µM (inactive); with U-251, 14.3 µM (inactive); in the assay on A549 it was 14.2 µM (inactive); in the assay with HT-29 it was 14.7 µM (inactive); in the assay on SNB-75, 3.65 µM (inactive); in the assay on NCI-H23 it was 14.3 µM (inactive). In addition, the GI50 in the assay on OVCAR-8 was 15.8 µM (inactive); with SNB-78, 20.6 µM (inactive); in the assay on UO-31, 4.84 µM (inactive); in the assay on SF-539, 16.6 µM (inactive); in the assay on SK-MEL-5 it was 16.5 µM (inactive); in the assay on KM12 it was 13.7 µM (inactive). Further, the GI50 in the assay with IGROV-1 was 14.8 µM (inactive); with SW-620, 20.4 µM (inactive); with UACC-257, 17.8 µM (inactive); with COLO 205, 14.8 µM (inactive); with SK-MEL-28, 16.8 µM (inactive); in the assay on NCI-H460 it was 17.5 µM (inactive). In addition, the GI50 in the assay with K562 is 14.9 µM (inactive).
Regarding `CCOC(=O)/C=C(\C)c1ccc(OC)cc1`, the GI50 is > 100 µM (inactive) in the assay with SF-295; > 100 µM (inactive) with U-251; > 100 µM (inactive) in the assay with A549; 88.9 µM (inactive) with HT-29; > 100 µM (inactive) in the assay with SNB-75; > 100 µM (inactive) in the assay on NCI-H23. Moreover, the GI50 in the assay with OVCAR-8, in the assay with SNB-78, with UO-31, in the assay on SF-539, in the assay on SK-MEL-5 and with KM12 was > 100 µM (inactive) throughout. The GI50 in the assay on IGROV-1, with SW-620, in the assay with SR, in the assay with UACC-257, with COLO 205 and in the assay on SK-MEL-28 was > 100 µM (inactive) throughout. For the same compound, the GI50 in the assay on NCI-H460 was > 100 µM (inactive).
Consider `CC(=O)NC1=C[C@@H]([C@H]2COC(C)(C)O2)OC1=O`, for which the GI50 with SF-295, in the assay on U-251, in the assay on A549, with HT-29, in the assay on SNB-75 and in the assay with NCI-H23 was > 100 µM (inactive) in each case. The GI50 in the assay on OVCAR-8, in the assay with SNB-78, with UO-31, in the assay with SF-539, in the assay with SK-MEL-5 and in the assay with KM12 was > 100 µM (inactive) in each case. The GI50 with IGROV-1, with SW-620, with UACC-257, with COLO 205, in the assay with SK-MEL-28 and with NCI-H460 was > 100 µM (inactive) in each case. In the assay on K562, the GI50 is > 100 µM (inactive).
Take `OCCNCN(CNCCO)c1nc(N(CNCCO)CNCCO)nc(N(CNCCO)CNCCO)n1`: the GI50 is 0.082 µM (active) in the assay on SF-295; 0.0745 µM (active) in the assay on U-251; 0.0711 µM (active) in the assay on A549; > 0.4 µM (active) with HT-29; 0.0655 µM (active) in the assay on NCI-H23; 0.0755 µM (active) in the assay on OVCAR-8. The GI50 with SNB-78 is 0.0959 µM (active); in the assay with UO-31 it was 0.0851 µM (active); in the assay with SF-539 it was 0.075 µM (active); with KM12, 0.137 µM (active); in the assay on IGROV-1, 0.0757 µM (active); with SW-620, 0.04 µM (active). In addition, the GI50 in the assay on UACC-257 is 0.0643 µM (active); in the assay on COLO 205, 0.0411 µM (active); in the assay on SK-MEL-28 it was 0.04 µM (active); with NCI-H460 it was 0.118 µM (active); in the assay with K562 it was 0.04 µM (active).
As to `CCCCOc1ccc(OCCCCCCCCCC[N+](C)(C)C)cc1`, the GI50 in the assay on SF-295 was 6.17 µM (inactive); in the assay with U-251, 1.91 µM (inactive); with A549, 3.55 µM (inactive); in the assay on HT-29 it was 0.452 µM (active); with SNB-75, 2.17 µM (inactive); in the assay on NCI-H23 it was 1.95 µM (inactive). Besides, the GI50 is 3.66 µM (inactive) in the assay with OVCAR-8; 2.38 µM (inactive) with SNB-78; 8.02 µM (inactive) with UO-31; 3.24 µM (inactive) in the assay with SF-539; 1.91 µM (inactive) in the assay on SK-MEL-5; 1.48 µM (inactive) in the assay with KM12. Also, the GI50 is 1.37 µM (inactive) in the assay on IGROV-1; 3.66 µM (inactive) in the assay with SW-620; 5.08 µM (inactive) with UACC-257; 1.24 µM (inactive) with COLO 205; 5.58 µM (inactive) with SK-MEL-28; 2.54 µM (inactive) in the assay on NCI-H460. For the same compound, the GI50 in the assay on K562 is 2.74 µM (inactive).
For `N=C(N)Nc1ncccc1[N+](=O)[O-]`, the GI50 with SF-295 is > 100 µM (inactive); with U-251, > 31.6 µM (inactive); in the assay on A549, > 100 µM (inactive); in the assay with HT-29, 40.6 µM (inactive); in the assay with SNB-75 it was > 100 µM (inactive); in the assay on NCI-H23, > 100 µM (inactive). Further, the GI50 in the assay on OVCAR-8 is > 88.3 µM (inactive); in the assay on SNB-78 it was > 100 µM (inactive); with UO-31, > 100 µM (inactive); with SF-539, 53.6 µM (inactive); with SK-MEL-5 it was 38.9 µM (inactive); in the assay on KM12, 57.4 µM (inactive). Also, the GI50 in the assay on IGROV-1 was > 93.8 µM (inactive); with SW-620, > 100 µM (inactive); with UACC-257, 23.6 µM (inactive); in the assay with COLO 205, 21.8 µM (inactive); in the assay on SK-MEL-28 it was > 100 µM (inactive); with NCI-H460 it was 51.8 µM (inactive). The GI50 with K562 was > 100 µM (inactive).
Turning to `CSc1nc(NC2OCC(O)C(O)C2O)c(N)c(=O)[nH]1` (centres undefined), the GI50 in the assay on SF-295, in the assay on U-251, with A549, in the assay on HT-29, with SNB-75 and with NCI-H23 was > 100 µM (inactive) throughout. Also, the GI50 with OVCAR-8, with SNB-78, with UO-31, in the assay with SF-539, in the assay with SK-MEL-5 and in the assay on KM12 was > 100 µM (inactive) throughout. For the same compound, the GI50 in the assay on IGROV-1, in the assay on SW-620, in the assay with UACC-257, in the assay with COLO 205, in the assay on SK-MEL-28 and with NCI-H460 was > 100 µM (inactive) each time. Also, the GI50 in the assay with K562 was > 100 µM (inactive).
For `COc1ccc(/C=N/N=C(N)N)c(C(=O)O)c1OC`, the GI50 in the assay with SF-295, in the assay on U-251, in the assay with A549, with HT-29, in the assay with SNB-75 and with NCI-H23 was > 100 µM (inactive) each time. In addition, the GI50 with OVCAR-8, with SNB-78, in the assay on UO-31, with SF-539, with SK-MEL-5 and in the assay on KM12 was > 100 µM (inactive) throughout. For the same compound, the GI50 was > 10 µM (inactive) in the assay on IGROV-1; > 100 µM (inactive) with SW-620; > 100 µM (inactive) in the assay with UACC-257; > 10 µM (inactive) in the assay on COLO 205; > 100 µM (inactive) in the assay on SK-MEL-28; > 100 µM (inactive) with NCI-H460. For the same compound, the GI50 in the assay with K562 was > 100 µM (inactive).
As for `Nc1nc(SCCNC(=O)CCc2ccc(O)c(I)c2)nc2c1ncn2C1OC(CO)C(O)C1O` (centres undefined), the GI50 in the assay on SF-295, in the assay with U-251, in the assay with A549, in the assay on HT-29, in the assay on SNB-75 and with NCI-H23 was > 100 µM (inactive) each time. Further, the GI50 with OVCAR-8, in the assay on SNB-78, in the assay on SF-539, in the assay with SK-MEL-5, with KM12 and in the assay on IGROV-1 was > 100 µM (inactive) throughout. For the same compound, the GI50 in the assay with SW-620, in the assay with SR, in the assay on UACC-257, in the assay on COLO 205, in the assay with SK-MEL-28 and in the assay on NCI-H460 was > 100 µM (inactive) in each case. In addition, the GI50 with K562 was > 100 µM (inactive).
For `Nc1[nH]cnc2ncnc1-2` [ADENINE], the GI50 was 108 µM (inactive) in the assay on SF-295; 108 µM (inactive) in the assay with U-251; > 121 µM (inactive) in the assay on HT-29; 121 µM (inactive) in the assay on SNB-75; 105 µM (inactive) in the assay with OVCAR-8; 114 µM (inactive) with SNB-78. Besides, the GI50 in the assay with UO-31 is 129 µM (inactive); in the assay on SF-539 it was 49.7 µM (inactive); in the assay with SK-MEL-5 it was > 96.6 µM (inactive); with KM12 it was 153 µM (inactive); in the assay on IGROV-1, > 250 µM (inactive); in the assay on SW-620, 231 µM (inactive). Besides, the GI50 was 200 µM (inactive) in the assay with UACC-257, > 162 µM (inactive) with COLO 205, > 243 µM (inactive) with SK-MEL-28 and > 248 µM (inactive) in the assay with K562.
